Results taken from patent publication US4927922A, “7β-(substituted)amino-3-substituted cephalosporanic acids and esters” (American Cyanamid Company, priority 1988, dated 1990).
In brackets after ≈: the same amount, converted by molar mass.

Assays:
Experiment in all cases: in vitro agar dilution test (MIC)
Format in all cases: cell-based
[1] = test system: Staphylococcus aureus ATCC 25923; details: ATCC25923; Staphylococcus aureus ATCC 25923; Mueller-Hinton agar; Table II; read-out: MIC
Procedure: (§1) The compounds of the present invention are active antibacterial agents as established in the in vitro agar dilution test using Mueller-Hinton agar. The test compounds were dissolved in a mixture of dimethyl sulfoxide and aqueous sodium bicarbonate and applied as 1 ml of drug solution plus 9 ml of agar per plate. The innoculum was a 5 hour TSB shake culture diluted to 10^-2 with Mueller-Hinton broth and applied to the plates with a Steers' Replicator.
(§2) The results of this test on representative compounds of this invention (identified by Example Number) against a variety of microorganisms appear in Tables I and II in terms of minimal inhibitory concentration (MIC) in mcg/ml together with Cefotaxime, Cephalothin and Ampicillin as positive controls.

[2] = test system: Escherichia coli CMC 84-16; details: CMC8416; Escherichia coli CMC 84-16; Mueller-Hinton agar; read-out: MIC
Procedure: as §1, §2

[3] = test system: Proteus rettgheri CMC 84-41; details: Proteus rettgheri CMC 84-41; Mueller-Hinton agar; read-out: MIC
Procedure: as §1, §2

[4] = test system: Escherichia coli ATCC 25922; details: ATCC25922, Mueller-Hinton agar, Table II
Procedure: as §1, §2

[5] = test system: Serratia marcesans F 35 (MP); details: Serratia marcesans F 35 (MP); Mueller-Hinton agar; read-out: MIC
Procedure: as §1, §2

[6] = test system: Staphylococcus aureus Smith (MP); details: Staphylococcus aureus Smith (MP); Mueller-Hinton agar; Table II; read-out: MIC
Procedure: as §1, §2

[7] = test system: Escherichia coli No. 311(Parent); details: Mueller-Hinton agar
Procedure: as §1, §2

[8] = test system: Enterobacter cloacae VGH 84-37; details: VGH8437; Enterobacter cloacae VGH 84-37; Mueller-Hinton agar; read-out: MIC
Procedure: as §1, §2

[9] = test system: Escherichia coli CMC 84-11; details: CMC8411, Mueller-Hinton agar
Procedure: as §1, §2

[10] = test system: Klebsiella pneumoniae MOR 84-4; details: MOR844; Klebsiella pneumoniae MOR 84-4; Mueller-Hinton agar; read-out: MIC
Procedure: as §1, §2

[11] = test system: Pseudomonas aeruginosa VGH 84-4; details: VGH844; Pseudomonas aeruginosa VGH 84-4; Mueller-Hinton agar; read-out: MIC
Procedure: as §1, §2

[12] = test system: Enterobacter cloacae K 84-10; details: K8410; Enterobacter cloacae K 84-10; Mueller-Hinton agar; read-out: MIC
Procedure: as §1, §2

[13] = test system: Acinetobacter calcoaceticus MOR 84-43; details: MOR8443; Acinetobacter calcoaceticus MOR 84-43; Mueller-Hinton agar; read-out: MIC
Procedure: as §1, §2

[14] = test system: Staphylococcus aureus CMC 83-128; details: CMC83128; Staphylococcus aureus CMC 83-128; Mueller-Hinton agar; read-out: MIC
Procedure: as §1, §2

[15] = test system: Klebsiella oxytoca MOR 84-28; details: MOR8428; Klebsiella oxytoca MOR 84-28; Mueller-Hinton agar; read-out: MIC
Procedure: as §1, §2

[16] = test system: Enterobacter aerogenes VGH 84-36; details: Klebsiella aerogenes, VGH8436; Enterobacter aerogenes VGH 84-36; Mueller-Hinton agar; read-out: MIC
Procedure: as §1, §2

[17] = test system: Staphylococcus epidermidis IO 83-58; details: IO8358; Staphylococcus epidermidis IO 83-58; Mueller-Hinton agar; read-out: MIC
Procedure: as §1, §2

[18] = test system: Escherichia coli No. 311 N.A.; details: Mueller-Hinton agar
Procedure: as §1, §2

[19] = test system: Serratia marcesans K 84-18; details: K8418; Serratia marcesans K 84-18; Mueller-Hinton agar; read-out: MIC
Procedure: as §1, §2

[20] = test system: Staphylococcus saprophyticus VGH 84-50; details: VGH8450; Staphylococcus saprophyticus VGH 84-50; Mueller-Hinton agar; read-out: MIC
Procedure: as §1, §2

Enterococcus VGH 84-65 = details: VGH8465; Enterococcus VGH 84-65; Mueller-Hinton agar; read-out: MIC
Procedure: as §1, §2

[21] = test system: Morganella morganii CMC 84-37; details: CMC8437; Morganella morganii CMC 84-37; Mueller-Hinton agar; read-out: MIC
Procedure: as §1, §2

[22] = test system: Klebsiella pneumoniae AD (MP); details: Klebsiella pneumoniae AD (MP); Mueller-Hinton agar; Table II; read-out: MIC
Procedure: as §1, §2

[23] = test system: Pseudomonas aeruginosa 12-4-4 (MP); details: Pseudomonas aeruginosa 12-4-4 (MP); Mueller-Hinton agar; Table II; read-out: MIC
Procedure: as §1, §2

[24] = test system: Staphylococcus epidermidis CMC 83-135; details: CMC83135; Staphylococcus epidermidis CMC 83-135; Mueller-Hinton agar; read-out: MIC
Procedure: as §1, §2

[25] = test system: Staphylococcus aureus CMC 83-131; details: CMC83131; Staphylococcus aureus CMC 83-131; Mueller-Hinton agar; read-out: MIC
Procedure: as §1, §2

[26] = test system: Staphylococcus aureus CMC 83-132; details: CMC83132; Staphylococcus aureus CMC 83-132; Mueller-Hinton agar; read-out: MIC
Procedure: as §1, §2

[27] = test system: Morganella morganii VGH 84-11; details: VGH8411; Morganella morganii VGH 84-11; Mueller-Hinton agar; read-out: MIC
Procedure: as §1, §2

SMILES | MIC [1] | MIC [2] | MIC [3] | MIC [4] | MIC [5] | MIC [6] | MIC [7] | MIC [8] | MIC [9] | MIC [10] | MIC [11] | MIC [12] | MIC [13] | MIC [14] | MIC [15] | MIC [16] | MIC [17] | MIC [18] | MIC [19] | MIC [20] | other results
Cc1snnc1SCC1=C(C(=O)O)N2C(=O)[C@@H](NC(=O)Cc3cccs3)[C@H]2SC1 [Example 8, (6R-trans)-3-[[(5-Methyl-1,2,3-thiadiazol-4-yl)thio]methyl]-8-oxo-7-[(2-thienylacetyl)amino]-5-thia-1-azabicyclo[4.2.0]oct-2-ene-2-carboxylic acid] | 0.5 µg/mL (≈ 1.07 µM) | 64 µg/mL (≈ 137 µM) | 2 µg/mL (≈ 4.27 µM) | 64 µg/mL (≈ 137 µM) | > 256 µg/mL | ≤ 0.12 µg/mL | 32 µg/mL (≈ 68.3 µM) | > 256 µg/mL | 64 µg/mL (≈ 137 µM) | 32 µg/mL (≈ 68.3 µM) | > 256 µg/mL | > 256 µg/mL | > 256 µg/mL | 1 µg/mL (≈ 2.13 µM) | 256 µg/mL (≈ 546 µM) | 256 µg/mL (≈ 546 µM) | 2 µg/mL (≈ 4.27 µM) | 32 µg/mL (≈ 68.3 µM) | > 256 µg/mL | 1 µg/mL (≈ 2.13 µM) | MIC (Enterococcus VGH 84-65): 32 µg/mL (≈ 68.3 µM); MIC [21]: > 256 µg/mL; MIC [22]: 8 µg/mL (≈ 17.1 µM); MIC [23]: > 256 µg/mL; MIC [24]: ≤ 0.12 µg/mL; MIC [25]: 32 µg/mL (≈ 68.3 µM); MIC [26]: 32 µg/mL (≈ 68.3 µM); MIC [27]: > 256 µg/mL
CCc1snnc1SCC1=C(C(=O)O)N2C(=O)[C@@H](NC(=O)Cc3cccs3)[C@H]2SC1 [Example 10, (6R-trans)-3-[[(5-Ethyl-1,2,3-thiadiazol-4-yl)thio]methyl]-8-oxo-7-[(2-thienylacetyl)amino]-5-thia-1-azabicyclo[4.2.0]oct-2-ene-2-carboxylic acid] | 0.5 µg/mL (≈ 1.04 µM) | 128 µg/mL (≈ 265 µM) | 4 µg/mL (≈ 8.29 µM) | 64 µg/mL (≈ 133 µM) | > 256 µg/mL | ≤ 0.12 µg/mL | 64 µg/mL (≈ 133 µM) | > 256 µg/mL | 128 µg/mL (≈ 265 µM) | 64 µg/mL (≈ 133 µM) | > 256 µg/mL | > 256 µg/mL | > 256 µg/mL | 1 µg/mL (≈ 2.07 µM) | 128 µg/mL (≈ 265 µM) | > 256 µg/mL | 2 µg/mL (≈ 4.14 µM) | 64 µg/mL (≈ 133 µM) | > 256 µg/mL | 1 µg/mL (≈ 2.07 µM) | MIC (Enterococcus VGH 84-65): 32 µg/mL (≈ 66.3 µM); MIC [21]: > 256 µg/mL; MIC [22]: 16 µg/mL (≈ 33.2 µM); MIC [23]: > 256 µg/mL; MIC [24]: ≤ 0.12 µg/mL; MIC [25]: 32 µg/mL (≈ 66.3 µM); MIC [26]: 32 µg/mL (≈ 66.3 µM); MIC [27]: > 256 µg/mL
